{
  "source": "paper PMC6485937",
  "about": "(Archives of toxicology, 2016)",
  "key": {"[1]": {"tested_on": "diethylphosphoryl DjChE (OP inhibited D. japonica cholinesterase)", "assay": "Reactivation of OP inhibited DjChE by oximes or NaF", "type": "biochemical, Dugesia japonica"}, "human AChE": {"tested_on": "human AChE", "conditions": "human AChE in vitro; ref Radić et al. 2013; cited from earlier work"}, "[2]": {"conditions": "in mammals; ref Radić et al. 2012; cited from earlier work"}, "[3]": {"tested_on": "D. japonica cholinesterase (DjChE)", "assay": "Kinetics of irreversible", "type": "biochemical, Dugesia japonica", "conditions": "for kr (bimolecular rate constant), rates of inhibition by OP oxons / kr (bimolecular rate constant), rates of inhibition by carbamylating agents: 1 mM ATCh, room temperature, mean± 95% confidence intervals; for Inhibition of ATCh or BTCh hydrolysis: 1 mM ATCh or BTCh"}, "[4]": {"tested_on": "D. japonica cholinesterase (DjChE)", "assay": "Substrate hydrolysis by DjChE in homogenates", "type": "biochemical, Dugesia japonica", "conditions": "mean ± SE of 6 independent experiments"}},
  "data": [
    {"compound": "O=C(C=NO)NCCN1CCCCCC1", "note": "[RS194B]", "values": [
      {"measurement": "Reactivation rate compared with 2-PAM", "setting": "[1]; 4 mM oxime, diazinon oxon inhibited DjChE", "value": "significantly faster than 2-PAM"},
      {"measurement": "Rate of reactivation relative to equimolar 2-PAM", "setting": "human AChE", "value": 2.5, "unit": "times faster"},
      {"measurement": "Crossing of the blood-brain barrier", "setting": "[2]", "value": "crosses the blood-brain barrier"}
    ]},
    {"compound": "CCOP(=O)(OCC)Oc1cc(C)nc(C(C)C)n1", "note": "[Diazinon oxon, diazinon oxon]", "values": [
      {"measurement": "kr (bimolecular rate constant), rates of inhibition by OP oxons", "setting": "[3]", "value": "22±2 × 10^5 M^−1min^−1"}
    ]},
    {"compound": "[F-].[Na+]", "note": "[NaF, sodium fluoride]", "values": [
      {"measurement": "Reactivation rate of 10 mM NaF relative to 4 mM 2-PAM", "setting": "[1]; 10 mM NaF vs 4 mM 2-PAM", "value": "four times faster"},
      {"measurement": "mean kobs of reactivation", "setting": "[1]; 10 mM NaF, OP inhibited DjChE", "value": 0.023, "unit": "min⁻¹"}
    ]},
    {"compound": "chlorpyrifos oxon", "values": [
      {"measurement": "kr (bimolecular rate constant), rates of inhibition by OP oxons", "setting": "[3]", "value": "3.0± 0.3 × 10^5 M^−1min^−1"}
    ]},
    {"compound": "CN(C)C(=O)Oc1cccc([N+](C)(C)C)c1", "note": "[Neostigmine, neostigmine]", "values": [
      {"measurement": "kr (bimolecular rate constant), rates of inhibition by carbamylating agents", "setting": "[3]", "value": "1.3±0.2 × 10^5 M^−1 min^−1"}
    ]},
    {"compound": "CNC(=O)Oc1cccc2ccccc12", "note": "[Carbaryl, carbaryl]", "values": [
      {"measurement": "kr (bimolecular rate constant), rates of inhibition by carbamylating agents", "setting": "[3]", "value": "0.00064± 0.00008 × 10^5 M^−1 min^−1"}
    ]},
    {"compound": "CCOP(=O)(OCC)Oc1ccc([N+](=O)[O-])cc1", "note": "[Paraoxon, paraoxon]", "values": [
      {"measurement": "kr (bimolecular rate constant), rates of inhibition by OP oxons", "setting": "[3]", "value": "1.7± 0.1 × 10^5 M^−1min^−1"}
    ]},
    {"compound": "CCOC(=O)CC(SP(=O)(OC)OC)C(=O)OCC", "note": "(stereo not shown) [Malaoxon, malaoxon]", "values": [
      {"measurement": "kr (bimolecular rate constant), rates of inhibition by OP oxons", "setting": "[3]", "value": "0.14± 0.01 × 10^5 M^−1min^−1"}
    ]},
    {"compound": "COP(=O)(OC)OC=C(Cl)Cl", "note": "[Dichlorvos, dichlorvos]", "values": [
      {"measurement": "kr (bimolecular rate constant), rates of inhibition by OP oxons", "setting": "[3]", "value": "9.1± 0.9 × 10^5 M^−1min^−1"}
    ]},
    {"compound": "CNC(=O)Oc1ccc2c(c1)[C@]1(C)CCN(C)[C@@H]1N2C", "note": "[Physostigmine, physostigmine]", "values": [
      {"measurement": "kr (bimolecular rate constant), rates of inhibition by carbamylating agents", "setting": "[3]", "value": "0.32± 0.02 × 10^5 M^−1 min^−1"}
    ]},
    {"compound": "CN(C)C(=O)Oc1ccc[n+](C)c1", "note": "[Pyridostigmine, pyridostigmine]", "values": [
      {"measurement": "kr (bimolecular rate constant), rates of inhibition by carbamylating agents", "setting": "[3]", "value": "0.10± 0.01 × 10^5 M^−1 min^−1"}
    ]},
    {"compound": "CC(=O)SCC[N+](C)(C)C", "note": "[ATCh, acetylthiocholine]", "values": [
      {"measurement": "Km", "setting": "[4]", "value": "123 ± 6", "unit": "µM"}
    ]},
    {"compound": "pyridine-2-aldoxime [2-PAM]", "values": [
      {"measurement": "mean kobs of reactivation", "setting": "[1]; 4 mM 2-PAM, diazinon oxon inhibited DjChE", "value": 0.0058, "unit": "min⁻¹"}
    ]},
    {"compound": "CC(C)NP(=O)(NC(C)C)OP(=O)(NC(C)C)NC(C)C", "note": "[iso-OMPA, Tetraisopropyl pyrophosphoramide]", "values": [
      {"measurement": "Inhibition of ATCh or BTCh hydrolysis", "setting": "[3]; 5 mM iso-OMPA", "value": "only slow inhibition"},
      {"measurement": "Inhibition of ATCh or BTCh hydrolysis", "setting": "[3]; incubation with up to 1 mM iso-OMPA", "value": "unable to significantly inhibit"}
    ]},
    {"compound": "CCCC(=O)SCC[N+](C)(C)C", "note": "[BTCh, butyrylthiocholine]", "values": [
      {"measurement": "Km", "setting": "[4]", "value": "59 ± 4", "unit": "µM"}
    ]}
  ]
}
